Three substances from patent US20030199431A1, “Modified peptide nucleic acid (PNA) molecules” (priority 1999, published 2003) can be followed below.

One assay deals with E. coli K12. The experiment in a line: Bacterial growth inhibition with PNA 249 (without peptide, FtsZ) and peptide 250, 100% Mueller-Hinton broth (Table 18). The format is cell-based, Escherichia coli. To be noted: for Growth inhibition effect: low concentration end.
Another assay deals with test culture. Type of assay: cell-based. To be noted: 37° C., 16 hours.

Turning to “H-CG-KLAKALKKLL-NH2 (H-CGKLAKALKKLL-NH2) [PNA 250, peptide alone, also used for PNA 174]”, in the assay on E. coli K12, the “Peptide concentration at which the peptide alone may show growth inhibition effect” value is “above 2500 nM”; the Growth inhibition effect entry is “neither 249 nor 250 alone nor 249 and 250 together show any useful effect”.

Turning to “H-KFFKFFKFFK-ado-TGA CTA GAT GAG-NH2 [PNA 136]”, the Growth inhibition result in the assay on test culture is “No growth inhibition was detected”. Take H-ado-TTC AAA CAT AGT-NH2 [PNA 249]: the Growth inhibition effect result in the assay with E. coli K12 was “neither 249 nor 250 alone nor 249 and 250 together show any useful effect”.
